Reference: the supplement of paper PMC13380429

Legend:
[1] = system: A549-ACE2; test: drug-induced phospholipidosis relative to tamoxifen; higher = more phospholipidosis
[2] = system: Calu-3; test: relative viability EC50 (midpoint between 100% and the lowest measured viability); higher = less toxic; settings: 72 h
[3] = system: Vero E6; test: as above; settings: 72 h
[4] = system: U2OS; test: as above; settings: 72 h
[5] = system: A549-ACE2 infected with SARS-CoV-2; test: cell count relative to DMSO; higher = less toxic; settings: 24 h
[6] = system: A549-ACE2 infected with SARS-CoV-2; test: SARS-CoV-2 infection rate relative to DMSO; higher = more infection; settings: 24 h
[7] = system: HepG2; test: cell viability relative to DMSO; higher = less toxic; settings: 72 h
[8] = system: Caco-2; test: as above; settings: 72 h
[9] = system: Calu-3; test: as above; settings: 72 h
[10] = system: Vero E6; test: as above; settings: 72 h
[11] = system: U2OS; test: as above; settings: 72 h
[12] = system: HepG2; test: drug sensitivity score (DSS) for viability; higher = more toxic; extreme values may be limits of the assay; settings: 72 h
[13] = system: Caco-2; test: as above; settings: 72 h
[14] = system: Calu-3; test: as above; settings: 72 h
[15] = system: Vero E6; test: as above; settings: 72 h
[16] = system: U2OS; test: as above; settings: 72 h
[17] = system: A549-ACE2 infected with SARS-CoV-2; test: morphology score (similarity to uninfected cells); higher = more like uninfected cells; settings: 24 h
[18] = system: HepG2; test: relative viability EC50 (midpoint between 100% and the lowest measured viability); higher = less toxic; settings: 72 h
[19] = system: Caco-2; test: as above; settings: 72 h
[20] = system: A549-ACE2; test: phospholipidosis EC50; higher = less potent phospholipidosis inducer

COc1cc2ncnc(Sc3nnc(C)s3)c2cc1OC [SKLB1002]
drug-induced phospholipidosis [%], [1]
Settings | 0.3 µM | 0.833333 µM | 3.33333 µM | 6.66667 µM | 10 µM | 30 µM
24 h | 7.29 | 1.02 | 4.5 | 10.7 | 22.8 | 44.1
48 h | 7.01 | -1.13 | -0.08 | 3.84 | 12.5 | –
72 h | 8.05 | -2.71 | -0.571 | -0.945 | 0.143 | –

Settings | drug sensitivity score | relative viability EC50 [µM]
[2] | – | > 10
[3] | – | > 10
[4] | – | > 10
[12] | 1.7 | –
[13] | 1.9 | –
[14] | 0 | –
[15] | 0 | –
[16] | 0 | –

Settings | SARS-CoV-2 infection rate, [6] [%] | cell count, [5] [%] | cell viability, [7] [%] | cell viability, [8] [%] | cell viability, [9] [%] | cell viability, [10] [%] | cell viability, [11] [%] | morphology score, [17]
1 nM | – | – | 104 | 101 | 103 | 96.2 | 99.1 | –
10 nM | – | – | 99.6 | 92 | 99.2 | 94.8 | 99.4 | –
100 nM | – | – | 105 | 97.7 | 96.3 | 92.7 | 102 | –
0.3 µM | 105 | 102 | – | – | – | – | – | -0.11
1000 nM | – | – | 105 | 94.4 | 92.1 | 98.4 | 102 | –
3 µM | 105 | 102 | – | – | – | – | – | -0.15
10 µM | 106 | 97 | – | – | – | – | – | 0.01
10000 nM | – | – | 59.1 | 73.7 | 107 | 87.8 | 88.3 | –
30 µM | 79 | 85 | – | – | – | – | – | 0.25

CCN(CC)C(=S)SSC(=S)N(CC)CC [disulfiram]
drug-induced phospholipidosis [%], [1]
Settings | 0.3 µM | 0.833333 µM | 3.33333 µM | 6.66667 µM | 10 µM | 30 µM
24 h | 2.43 | -1.42 | 2.59 | -0.54 | 2.87 | 7.83
48 h | – | – | – | -0.28 | 1.88 | –
72 h | – | – | – | 1.75 | 1.77 | –

Settings | drug sensitivity score | relative viability EC50 [µM]
[2] | – | > 10
[3] | – | > 10
[4] | – | > 10
[12] | 21.4 | –
[13] | 27.5 | –
[14] | 0 | –
[15] | 0 | –
[16] | 0.2 | –
[18] | – | 0.0936
[19] | – | 0.0314

Settings | SARS-CoV-2 infection rate, [6] [%] | cell count, [5] [%] | cell viability, [7] [%] | cell viability, [8] [%] | cell viability, [9] [%] | cell viability, [10] [%] | cell viability, [11] [%] | morphology score, [17]
1 nM | – | – | 104 | 103 | 101 | 108 | 100 | –
10 nM | – | – | 103 | 90.1 | 90.5 | 104 | 99.6 | –
100 nM | – | – | 53.2 | 19.1 | 94.7 | 101 | 99 | –
0.3 µM | 84 | 105 | – | – | – | – | – | 0.44
1000 nM | – | – | 13.7 | 9.6 | 36.9 | 89.3 | 78 | –
3 µM | 76 | 106 | – | – | – | – | – | 0.45
10 µM | 27 | 63 | – | – | – | – | – | 0.51
10000 nM | – | – | 95 | 75.3 | 106 | 99.6 | 94.6 | –
30 µM | 32 | 58 | – | – | – | – | – | 0.35

OCCN1CCN(CCCN2c3ccccc3Sc3ccc(C(F)(F)F)cc32)CC1 [fluphenazine]
drug-induced phospholipidosis [%], [1]
Settings | 0.3 µM | 0.833333 µM | 3.33333 µM | 6.66667 µM | 10 µM | 30 µM
24 h | 3.92 | 11.1 | 44.3 | 81.8 | 103 | 78.9
48 h | 2.29 | 10 | 32.4 | 91.3 | 114 | –
72 h | 4.14 | 10.7 | 24.3 | 80.2 | 116 | –

Settings | drug sensitivity score | relative viability EC50 [µM]
[2] | – | 2.99
[4] | – | > 10
[12] | 3.3 | –
[13] | 3.4 | –
[14] | 4.5 | –
[15] | 3.2 | –
[16] | 0.5 | –
[18] | – | 2.53

Settings | SARS-CoV-2 infection rate [%] | cell count [%] | cell viability [%] | morphology score | phospholipidosis EC50 [µM]
[5], 0.1 µM | – | 103 | – | – | –
[5], 0.3 µM | – | 99 | – | – | –
[5], 1 µM | – | 90 | – | – | –
[5], 3 µM | – | 122 | – | – | –
[6], 0.1 µM | 97 | – | – | – | –
[6], 0.3 µM | 99 | – | – | – | –
[6], 1 µM | 83 | – | – | – | –
[6], 3 µM | 44 | – | – | – | –
[7], 1 nM | – | – | 102 | – | –
[7], 10 nM | – | – | 90.9 | – | –
[7], 100 nM | – | – | 95.9 | – | –
[7], 1000 nM | – | – | 96.1 | – | –
[7], 10000 nM | – | – | 49.4 | – | –
[8], 1 nM | – | – | 101 | – | –
[8], 10 nM | – | – | 100 | – | –
[8], 100 nM | – | – | 88.2 | – | –
[8], 1000 nM | – | – | 85.2 | – | –
[8], 10000 nM | – | – | 64.4 | – | –
[9], 1 nM | – | – | 101 | – | –
[9], 10 nM | – | – | 110 | – | –
[9], 100 nM | – | – | 96.8 | – | –
[9], 1000 nM | – | – | 98.1 | – | –
[9], 10000 nM | – | – | 22.4 | – | –
[10], 1 nM | – | – | 103 | – | –
[10], 10 nM | – | – | 100 | – | –
[10], 100 nM | – | – | 101 | – | –
[10], 1000 nM | – | – | 95.5 | – | –
[10], 10000 nM | – | – | 52 | – | –
[11], 1 nM | – | – | 101 | – | –
[11], 10 nM | – | – | 101 | – | –
[11], 100 nM | – | – | 94.7 | – | –
[11], 1000 nM | – | – | 92.6 | – | –
[11], 10000 nM | – | – | 84.2 | – | –
[17], 0.1 µM | – | – | – | 0.13 | –
[17], 0.3 µM | – | – | – | 0.02 | –
[17], 1 µM | – | – | – | 0.49 | –
[17], 3 µM | – | – | – | 0.75 | –
[20], 24 h | – | – | – | – | 3.49
[20], 48 h | – | – | – | – | 5.08
[20], 72 h | – | – | – | – | 6.62
